# PubChem BioAssay (NCI)
#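 Protocol summary: plate cells (96-well), add compound at 5 concentrations, incubate 48 h, interpolate endpoints linearly. GI50 marks 50% less growth. At the TGI there is no net growth.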
# System: MDA-MB-468 breast
# Experiment: NCI-60 cell line screen, 48 h
SMILES,GI50 [nM],TGI [nM]
O=C1CC(c2ccc3c(c2)OCO3)Nc2cc3c(cc21)OCO3 (stereo unspecified),295,924
Cn1ccnc1C(=O)/C=C/c1ccc(CC(=O)Nc2ccc(S(F)(F)(F)(F)F)cc2)cc1,2480,5170
CCCCCCCCCCCCCCCC[N+](C)(C)CCN(Cc1ccc(OC)cc1)c1ncccn1,1040,3580
O=C1c2ccc3c4c5ccc(c24)C(=O)N1CCCOCCCCOCCCNCc1ccc(cc1)CNCCCOCCCCOCCCN(C3=O)C5=O,802,1650
Cn1ccc2c(c1=O)C(=O)c1nccc3c1c-2nc1ccccc13,1440,2810
C[C@H]1[C@H](C)CC[C@]2(C(=O)N3CCN(C)CC3)CC[C@]3(C)C(=CC[C@@H]4[C@@]5(C)C/C(=C/c6cccnc6)C(=O)C(C)(C)[C@@H]5CC[C@]43C)[C@H]12,665,2040
CC(CN1CCN(C)CC1)CN1c2ccccc2Sc2ccc(C(F)(F)F)cc21 (stereo unspecified),1630,3220
NC1=C(Br)C(=O)c2ncccc2C1=O,570,2130
CC(C)[C@@]12C[C@@H](OC(=O)COC(=O)/C=C/c3ccccc3)[C@@](C)(O1)[C@@H]1CC[C@@H](C)[C@H]1[C@@H]2OC(=O)/C=C/c1ccccc1,> 61400,> 100000
C=CCNCCCN1C(=O)c2ccc3c4c(ccc(c24)C1=O)C(=O)N(CCCNCC=C)C3=O,177,423
Cc1ccc2cc3c(ccc4ccccc43)c3c2c1CC3,169,372
COC(=O)c1cc(-c2cc(OC)c(OC)c(OC)c2)[nH]c1N/N=C/c1c(Cl)cccc1Cl,8290,48200
O=C1/C(=C/c2ccc([N+](=O)[O-])o2)Oc2ccc(Br)cc21,2020,4460
COc1ccc2c(c1)c(-c1nc(-c3c[nH]c4ncccc34)cs1)cn2CCCCN1CCOCC1,1950,3980
COc1ccc(C/C(C)=C(\c2ccc(OCCN3CCOCC3)cc2)c2ccc(OC(=O)Cc3ccccc3)cc2)cc1,514,1470
CCCCCc1ccc(S(=O)(=O)Nc2cccc(-c3csc(NCCN4CCN(C)CC4)n3)c2)cc1,1630,3160
Cn1c(=O)c(Oc2ccc(F)cc2F)cc2cnc(NC(CO)CO)nc21,> 25000,> 25000
CN1CCN(c2nc(NCCCCNc3ccnc4cc(Cl)ccc34)c3ccccc3n2)CC1,1580,3660
CN(c1ccc(NC(=O)Nc2ccc(OC(F)(F)F)cc2)cc1)c1ccnc(Nc2cccc(S(N)(=O)=O)c2)n1,3930,8860
CS(=O)(=O)c1ccc(-c2cnc(N)c(C(=O)Nc3ccccc3)n2)cc1,> 37200,> 100000
COc1cc(C(O)c2nc3ccccc3s2)cc(OC)c1OC (stereo unspecified),5680,57200
NC(=O)c1cc([N+](=O)[O-])c(Cl)c([N+](=O)[O-])c1,1670,3320
CCN1CCN(CC(=O)Nc2nc3ccc(NCc4ccc(Cl)cc4)cc3s2)CC1,1770,4610

SMILES,GI50 [nM],TGI [nM]
CC1=CCC(OC(=O)C(C)(C)CCC(O)(C(=O)OC2(C(C)C)CCC3(C)OC3C2)C(C)C)(C(C)C)CC1 (stereo unspecified),351,1240
Cc1cc(NC(=O)NC(=O)c2ccccc2N)ccc1Oc1ncc(Br)cn1,< 10,> 100000
COc1ccc(-c2cnnn2-c2cc(OC)c3c(c2)OCO3)cc1,56.5,> 100000
C[C@]12CC[C@@H]3c4ccc(O)cc4CC[C@H]3[C@@H]1CC[C@@H]2NS(=O)(=O)c1cccc(C(F)(F)F)c1,4080,16900
COc1cc(Cn2c(=S)ss/c2=N\C(=S)N(C)C)cc(OC)c1OC,7040,> 100000
COc1ccc(C(=O)/C=C/c2c(C(F)(F)F)nc3sccn23)cc1OC,6180,> 100000
O=C1/C(=C/c2ccccc2F)CNC/C1=C\c1ccccc1F,626,2750
N#Cc1c2cccnc2c2nnc3cc(Cl)c(Cl)cc3n12,1100,2590
C=CC1=C[C@@H]2[C@@H]3O[C@]4(CC[C@H](O4)[C@@H](C)C[C@@H](O)C3=O)C[C@H](O)C3=NCC[C@@]32CC1,< 3.33,< 3.33
COc1ccc(C(=O)COc2cccc(/C=C3\CSc4ccccc4C3=O)c2)cc1,1420,2930
Cc1nc2sc(C(=O)Nc3cccc4ccccc34)c(N)c2cc1C(=O)/C=C/c1ccccc1,194,745
COc1ccn2c(C(C)=O)cc(C(=O)c3ccc4c(c3)Sc3ccccc3N4)c2c1,159,> 24800
C/C(=C\c1ccn(-c2ccc(N)c(F)c2)n1)[C@@H]1C[C@@H]2O[C@]2(C)CCC[C@H](C)[C@H](O)[C@@H](C)C(=O)C(C)(C)[C@@H](O)CC(=O)O1,9.96,
COc1ccc(-c2nnc(SCC(=O)Nc3ccc(/C(C)=N\O)cc3)n2-c2ccccc2)cc1OC,16400,> 100000
C=C(C)[C@@H]1CC[C@]2(C(=O)NCCNCCNCCN)CC[C@]3(C)[C@H](CC[C@@H]4[C@@]5(C)CC[C@H](O)C(C)(C)[C@@H]5CC[C@]43C)[C@@H]12,8880,22700
O=C(CCCCCCSc1nc(-c2ccccc2)cc(-c2ccccc2)n1)NO,2770,10500
CCc1cccc2c3c(sc12)C(c1ccc(Cl)cc1)C(C#N)=C(N)O3 (stereo unspecified),280,1020
CCN(CCNc1ccc(C)c2sc3cc(Cl)ccc3c(=O)c12)CC(C)O (stereo unspecified),1740,3390
N=c1c2c(-c3ccccc3)c(-c3ccccc3)n(Cc3ccccc3)c2ncn1CCCO,581,2090
Cc1nc2cnc3cc(F)c(-c4ccc(Oc5ncccn5)cc4Cl)cc3c2n1[C@H]1CCN(C(=O)CO)C[C@@H]1F,9470,28900
COc1ccc(-c2cc(-c3ccccc3)nc(N3CCN(CCNc4ccnc5cc(Cl)ccc45)CC3)n2)cc1,1220,2620
CN(C)c1ccc(-c2cc(-c3ccc(Nc4nc(Nc5ccccc5)nc(Nc5ccc(Cl)cc5)n4)cc3)nc(N)n2)cc1,7910,> 100000
CC(C)(C)c1cc(NC(=O)Nc2ccc(-c3cn4c5c(sc4n3)CCc3c[nH]cc3-5)cc2)no1,1970,32800
